Experiments:
[1] = tested on: non-transformed cells; assay: Test 9: TRPA1 activity test, non-transformed cells; format: cell-based, human; conditions: maximum values, average ± standard deviation; concentration after adding per Table 7 (10.2-28.2 ppm)
Description: Also for HEK293T cells without transfer of the TRPA1 gene (hereinafter, also referred to as "non-transformed cells"), as a reference, 50 µL of the test solution of Example 9 and 50 µL of the test solution of Comparative Example 6 were added with the same method as performed for the cells with forced expression of TRPA1, and ΔRFU was determined.
(§1) In the present test, test solutions of Examples 13 to 28 and Comparative Examples 9 to 14 described later were used in place of the test solutions used in First Testing Method of Test 5. Except that, the amount of change in RFU before and after addition of each test solution (ΔRFU) was determined for cells with forced expression of TRPA1 and non-transformed cells with the same method as First Testing Method of Test 5.
The test solutions of Examples 13 to 28 and Comparative Examples 10 to 14 used in the present test were each obtained by adding a compound listed in Table 7 into HEPES buffer. The octanol/water partition coefficient (log Pow) of each compound listed in Table 7 was calculated with XlogP (Shanghai Institute of Organic Chemistry, Chinese Academy of Sciences, http://WWW.sio-ccbg.ac.cn/software/xlogp3/), which is software using the XlogP3 algorithm. Each test solution was added as 50-µL portions to wells, and the concentrations of the compounds were set to concentrations shown in Table 7. HEPES buffer was used as the test solution of Comparative Example 9 for a negative control (N.C.), and added as 50-µL portions to wells.
Table 7 and Figure 18 show average ± standard deviation of maximum values of ΔRFU. In the present test, SoftMax Pro Vr. 6 (manufactured by Molecular Devices, LLC.) and Excel (manufactured by Microsoft Corporation) were used for data analysis.

[2] = molecular target: T1, TRPA1 (Homo sapiens, UniProt O75762); assay: Test 9: TRPA1 activity test, cells with forced expression of TRPA1; format: cell-based; conditions: for Δ RFU in cells with forced expression of TRPA1: maximum values, average ± standard deviation, concentration after adding per Table 7 (10.2-28.2 ppm); for Δ RFU in cells with forced expression of TRPA1 / Δ RFU in non-transformed cells: ratio of maximum ΔRFU values, concentration after adding per Table 7
T1 construct: expressed in transfected cells; host or cells: HEK293T cells, transient transfection with Lipofectamine 2000
T1 sequence (O75762 whole entry): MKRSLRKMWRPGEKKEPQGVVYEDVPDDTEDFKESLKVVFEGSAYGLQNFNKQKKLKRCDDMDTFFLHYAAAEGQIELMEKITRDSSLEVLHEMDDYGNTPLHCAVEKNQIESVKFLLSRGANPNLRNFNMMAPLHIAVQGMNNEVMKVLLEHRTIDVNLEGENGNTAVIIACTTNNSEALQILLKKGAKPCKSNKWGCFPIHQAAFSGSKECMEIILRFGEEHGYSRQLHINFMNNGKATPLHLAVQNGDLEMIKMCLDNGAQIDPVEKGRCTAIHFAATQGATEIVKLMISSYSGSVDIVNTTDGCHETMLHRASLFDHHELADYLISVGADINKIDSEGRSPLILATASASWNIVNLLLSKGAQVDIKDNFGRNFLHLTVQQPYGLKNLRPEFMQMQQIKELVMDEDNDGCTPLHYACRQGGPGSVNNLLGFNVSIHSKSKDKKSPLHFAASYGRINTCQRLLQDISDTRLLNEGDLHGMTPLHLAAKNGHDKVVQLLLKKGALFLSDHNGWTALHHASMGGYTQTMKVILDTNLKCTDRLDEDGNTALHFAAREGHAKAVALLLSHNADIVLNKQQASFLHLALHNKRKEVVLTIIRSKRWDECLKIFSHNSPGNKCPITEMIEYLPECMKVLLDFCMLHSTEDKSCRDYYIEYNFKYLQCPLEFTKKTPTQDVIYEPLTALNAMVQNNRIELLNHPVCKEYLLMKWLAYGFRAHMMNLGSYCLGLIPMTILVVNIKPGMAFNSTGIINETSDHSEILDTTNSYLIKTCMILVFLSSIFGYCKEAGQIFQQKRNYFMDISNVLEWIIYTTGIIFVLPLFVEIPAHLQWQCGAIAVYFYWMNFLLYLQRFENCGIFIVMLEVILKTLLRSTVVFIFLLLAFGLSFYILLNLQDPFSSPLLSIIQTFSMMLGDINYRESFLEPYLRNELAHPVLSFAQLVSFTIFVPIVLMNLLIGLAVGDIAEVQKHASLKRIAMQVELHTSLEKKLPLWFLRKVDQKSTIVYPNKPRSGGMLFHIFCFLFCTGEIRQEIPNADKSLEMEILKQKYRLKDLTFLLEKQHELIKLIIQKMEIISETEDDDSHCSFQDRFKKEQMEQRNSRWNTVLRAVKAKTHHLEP
Description: In the present test, first, human embryonic HEK293T cells were first suspended in DMEM medium to which penicillin-streptomycin (manufactured by Thermo Fisher Scientific, Inc.) and fetal bovine serum (manufactured by Sigma-Aldrich Co. LLC) were added to reach concentrations of 100 Unit/mL, 100 µg/mL, and 10%, respectively, seeded in a 96-well plate at a volume of 100 µL/well, and cultured under conditions of 5% CO2 and 37°C until a cell density reached 70 to 90%.
Thereafter, the DMEM medium in each well was completely removed, to which OptiMEM medium (manufactured by Thermo Fisher Scientific, Inc.) containing the gene transfer reagent Lipofectamine 2000 (manufactured by Thermo Fisher Scientific, Inc.) and a hTRPA1 gene expression plasmid was added at a volume of 50 µL/well. Then, culture was performed under conditions of 37°C and 5% CO2 for approximately 24 hours to transfer the TRPA1 gene into the HEK293T cells. The contents of Lipofectamine 2000 and the hTRPA1 gene expression plasmid per 50 µL of the OptiMEM medium were 0.3 µL and 400 ng, respectively. The TRPA1 gene can be confirmed with a DNA database such as GenBank.
When the density of the HEK293T cells transfected in the described manner (hereinafter, also referred to as "cells with forced expression of TRPA1") reached 90 to 100%, FLIPR Calcium 6 Assay Kit (manufactured by Molecular Devices, LLC.), a calcium-sensitive fluorescent dye, was added at a volume of 50 µL/well, and culture was performed under conditions of 37°C and 5% CO2 for 2 hours. Here, the expression of TRPA1 on cell membranes was confirmed by response to cinnamaldehyde (manufactured by Wako Pure Chemical Industries, Ltd.), which is a known TRPA1 ligand. DMSO was used for dilution of cinnamaldehyde, and the DMSO concentration in each well was set to 0.1% in view of cytotoxicity.
Ethyl caproate was added to HEPES buffer (10 mM HEPES, 130 mM NaCl, 5 mM KCl, 10 mM glucose, 2 mM CaCl2·2H2O, 1.2 mM MgCl2·6H2O, pH = 7.40), and thus a test solution of Example 9 containing ethyl caproate in a concentration of 255 ppm was obtained. For a negative control (N.C.), HEPES buffer was used as a test solution of Comparative Example 6. Measurement of fluorescence intensity for the cells with forced expression of TRPA1 was initiated, and, 20 seconds thereafter, 50-µL portions of each of the test solutions prepared were added to three wells. After the lapse of a predetermined period of time, the measurement of fluorescence intensity was completed, and ratios of fluorescence intensity at each time after addition of a test solution as the average of fluorescence intensity before addition of a test solution was assumed as 1 (hereinafter, also referred to as "RFU (relative fluorescence units)") were determined from measurements of fluorescence intensity. Further, change rates in RFU before and after addition of a test solution (hereinafter, also referred to as "ΔRFU") were determined at each time after addition of a test solution. Fluorescence intensity was measured by using a FlexStation 3 (manufactured by Molecular Devices, LLC.). The measurement of fluorescence intensity was performed at room temperature, and each test solution was used for adding to wells at room temperature, too.
as §1
The test solutions of Examples 13 to 28 and Comparative Examples 10 to 14 used in the present test were each obtained by adding a compound listed in Table 7 into HEPES buffer. […]

Structure (SMILES)	Δ RFU in cells with forced expression of TRPA1 [2]	Δ RFU in cells with forced expression of TRPA1 / Δ RFU in non-transformed cells [2]	Δ RFU in non-transformed cells [1]
CCCCC(=O)OCC [Example 19, Ethyl valerate]	0.6 ± 0.1	5.6	0.1 ± 0.0
CCOC(=O)CC [Comparative Example 12, Ethyl propionate, reference compound]	0.3 ± 0.0	0.9	0.3 ± 0.1
CCCCCC(=O)OC [Example 21, Methyl caproate]	1.2 ± 0.2	5.4	0.2 ± 0.0
CCC(=O)OCCC(C)C [Example 17, Isoamyl propionate]	1.5 ± 0.5	12.4	0.1 ± 0.0
CCOC(=O)CCC(C)C [Example 20, Ethyl 4-methylvalerate]	2.0 ± 0.1	27.6	0.1 ± 0.0
CC(=O)OCCC(C)C [Example 13, Isoamyl acetate]	0.7 ± 0.0	3.4	0.2 ± 0.0
CCCOC(C)=O [Comparative Example 11, Propyl acetate, reference compound]	0.2 ± 0.0	0.8	0.3 ± 0.0
CCCCCCCC(=O)OC [Example 27, Methyl caprylate]	0.7 ± 0.1	8.3	0.1 ± 0.0
CCCCCC(=O)OCC [Example 22, Ethyl caproate]	2.2 ± 0.8	12.7	0.2 ± 0.0
CCCCCOC(C)=O [Example 14, Pentyl acetate]	0.8 ± 0.1	12.1	0.1 ± 0.0
CCCCCC(=O)OCCC [Example 23, Propyl caproate]	2.7 ± 1.1	12.9	0.2 ± 0.0
CCCCCCCOC(C)=O [Example 16, Heptyl acetate]	3.5 ± 0.7	127.8	0.0 ± 0.0
CCCCCCCCCCCC(=O)OCC [Comparative Example 14, Ethyl laurate, reference compound]	0.2 ± 0.0	0.8	0.2 ± 0.0
CCC(C)COC(C)=O (stereo not drawn) [Example 15, 2-Methylbutyl acetate]	0.6 ± 0.0	2.9	0.2 ± 0.0
CCOC(C)=O [Comparative Example 10, Ethyl acetate, reference compound]	0.2 ± 0.1	0.7	0.3 ± 0.0

Now from value to compound, other results behind:

Δ RFU in cells with forced expression of TRPA1 [2]	Δ RFU in cells with forced expression of TRPA1 / Δ RFU in non-transformed cells [2]	Structure (SMILES)	Δ RFU in non-transformed cells [1]
2.3 ± 0.4	19.0	CCCCCCCC(=O)OCC [Example 28, Ethyl caprylate]	0.1 ± 0.0
3.5 ± 1.1	12.8	CCCCCOC(=O)CCCCC [Example 26, Pentyl caproate]	0.3 ± 0.1
3.0 ± 0.2	16.2	CCCCCC(=O)OCCC(C)C [Example 25, Isoamyl caproate]	0.2 ± 0.0
4.1 ± 0.3	29.1	CCCCCC(=O)OCCCC [Example 24, Butyl caproate]	0.1 ± 0.0
0.2 ± 0.1	0.6	CCCCCCCC(=O)OCCC(C)C [Comparative Example 13, Isoamyl caprylate, reference compound]	0.3 ± 0.0
2.0 ± 0.4	19.3	CCCC(=O)OCCC(C)C [Example 18, Isoamyl butyrate]	0.1 ± 0.0

— patent publication EP4023291A1, “FAT METABOLISM PROMOTER” (Asahi Group Holdings, Ltd., priority 2019, dated 2021)
